Where two headings read alike, the source gives them in different places.
How the values were obtained:
[1] = target: T1, NanH-D237A (Tannerella forsythia, UniProt G8UIQ1, D224A); assay: crystal structure ([…] soak, […] Å) and tryptophan fluorescence quenching; format: binding
T1 construct: gene BFO_2207; C-terminally hexahistidine-tagged NanH
T1 sequence (G8UIQ1 21-539 D224A): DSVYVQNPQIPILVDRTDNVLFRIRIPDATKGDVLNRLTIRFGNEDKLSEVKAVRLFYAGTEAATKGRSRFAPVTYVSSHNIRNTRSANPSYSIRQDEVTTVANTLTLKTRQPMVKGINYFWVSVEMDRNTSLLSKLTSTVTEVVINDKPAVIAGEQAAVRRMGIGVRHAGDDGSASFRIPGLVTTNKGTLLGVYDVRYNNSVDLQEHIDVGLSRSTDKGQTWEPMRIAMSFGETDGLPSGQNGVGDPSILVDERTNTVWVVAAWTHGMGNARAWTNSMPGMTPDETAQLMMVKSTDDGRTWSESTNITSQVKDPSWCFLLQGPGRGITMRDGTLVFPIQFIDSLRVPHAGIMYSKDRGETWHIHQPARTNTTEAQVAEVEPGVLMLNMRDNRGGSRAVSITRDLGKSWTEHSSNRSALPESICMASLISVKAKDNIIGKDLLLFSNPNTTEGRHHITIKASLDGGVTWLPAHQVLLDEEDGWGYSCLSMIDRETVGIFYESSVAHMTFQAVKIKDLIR

[2] = target: T1, NanH-D237A; assay: as above; format: binding; remark: listed apart in the source

Structure (SMILES) | Kd [1] [µM] | Kd [2] [µM]
CC(=O)N[C@H]1[C@H]([C@H](O)[C@H](O)CO)O[C@@](OC[C@H]2O[C@@H](O[C@H]3[C@H](O)[C@@H](O)C(O)O[C@@H]3CO)[C@H](O)[C@@H](O)[C@H]2O)(C(=O)O)C[C@@H]1O (some centres unmarked) [6-SL] | 133 ± 48.3 | 
CC(=O)N[C@H]1[C@H]([C@H](O)[C@H](O)CO)O[C@@](O[C@H]2[C@@H](O)[C@@H](CO)O[C@@H](O[C@H]3[C@H](O)[C@@H](O)C(O)O[C@@H]3CO)[C@@H]2O)(C(=O)O)C[C@@H]1O (some centres unmarked) [3-SL] |  | 305 ± 91.5

— publication PMC9472817, “Structural and functional characterisation of a stable, broad-specificity multimeric sialidase from the oral pathogen Tannerella forsythia” (Biochemical Journal, 2022)
